# Experimental data from publication PMC4094517, “Structural Analysis and Mutant Growth Properties Reveal Distinctive Enzymatic and Cellular Roles for the Three Major L-Alanine Transaminases of Escherichia coli” (PLoS ONE, 2014).
# B1: His-tagged AlaA (alanine aminotransferase AlaA of Escherichia coli) (enzyme, UniProt P0A959 1-405, looked up)
# chain: MSPIEKSSKLENVCYDIRGPVLKEAKRLEEEGNKVLKLNIGNPAPFGFDAPDEILVDVIRNLPTAQGYCDSKGLYSARKAIMQHYQARGMRDVTVEDIYIGNGVSELIVQAMQALLNSGDEMLVPAPDYPLWTAAVSLSSGKAVHYLCDESSDWFPDLDDIRAKITPRTRGIVIINPNNPTGAVYSKELLMEIVEIARQHNLIIFADEIYDKILYDDAEHHSIAPLAPDLLTITFNGLSKTYRVAGFRQGWMVLNGPKKHAKGYIEGLEMLASMRLCANVPAQHAIQTALGGYQSISEFITPGGRLYEQRNRAWELINDIPGVSCVKPRGALYMFPKIDAKRFNIHDDQKMVLDFLLQEKVLLVQGTAFNWPWPDHFRIVTLPRVDDIELSLSKFARFLSGYHQL
# modifications: Lys240 in Schiff base linkage with pyridoxal 5'-phosphate (LLP, Lys-PLP)
# notes: AlaA, alanine aminotransferase (glutamic-pyruvic transaminase), Escherichia coli, 405-amino-acid monomer; alaA amplified from E. coli XL1-Blue genomic DNA into pETM11; pETM11 adds an N-terminal hexahistidine tag and a TEV protease cleavage site; Modelled residues 1-404 (chain A) and 2-405 (chain B); also called full-length AlaA; His6-AcTev-AlaA; source: E. coli BL21(DE3), purified (HisTrap, …)
# What was measured:
# [1] = target: T1, AlaA (Escherichia coli, UniProt P0A959); test: X-ray crystal structure, […] Å; assay type: binding; conditions: covalent (internal aldimine, Schiff base with Lys240); acetate from crystallisation solution also in active site; crystals in 0.25 M lithium acetate, 22% PEG 3350, 20 °C
# T1 construct: full length, 405 residues, N-terminal His6-TEV tag kept (pETM11, pAlaA), expressed in E. coli BL21(DE3), homodimer about 90 kDa
# [2] = target: the molecule itself; test: SEC; Superdex 200 10/300 GL after HisTrap, 4°C; elution mass estimated
Molecule,"X-ray crystal structure, 2.11 Å [1]",stoichiometry N [2]
Cc1ncc(COP(=O)(O)O)c(C=O)c1O [PLP],An intact Schiff base linkage between Lys240 and PLP,–
B1,–,2
